Converted amounts (≈) assume the structure as drawn.

One may read the MIC as the lowest concentration found to suppress growth.

The first test has as its system Streptococcus pyogenes. As to the kind of experiment: In vitro MIC, conventional two-fold serial dilution technique in Brain-Heart Infusion broth, vs. Strep. pyogenes. To be noted: Streptococcus pyogenes, read-out: MIC vs. Strep. pyogenes. Format: cell-based. As for the experimental part: The antibacterial penam compounds, prepared from the products of the instant process invention, show activity against a wide variety of gram-positive and gram-negative bacteria. […] The broth is inoculated with the bacterial culture, and with the test antibiotic, and then it is incubated overnight. On the next day, the test is read visually. The minimum inhibitory concentration (MIC) is the lowest concentration of antibiotic which prevents turbidity, i.e., which prevents growth of the microorganism. In vitro activities of several of the penam compounds of the invention are presented later in this specification.
In vitro antibacterial activities for a number of compounds prepared by the procedure of Example 8 are presented below.
In Table II, the minimum inhibitory concentrations (MIC's) of compounds wherein R is hydrogen, against a strain of Streptococcus pyogenes are reported.
As to `CC1(C)S[C@@H]2[C@H](NC(=O)C(N)c3cc(O)ccc3Br)C(=O)N2[C@H]1c1nnn[nH]1` (mixture of isomers), the MIC is under 0.1 µg/mL.

With `CC1(C)S[C@@H]2[C@H](NC(=O)[C@H](N)c3ccc(O)cc3)C(=O)N2[C@H]1c1nnn[nH]1` [D-2-amino-2-(p-hydroxyphenyl)acetyl, 6-(D-2-amino-2-[p-hydroxyphenyl]acetamido)-2,2-dimethyl-3-(5-tetrazolyl)penam], the minimal inhibitory concentration (MIC) was under 0.1 µg/mL.

On to `CC1(C)S[C@@H]2[C@H](NC(=O)Oc3ccccc3)C(=O)N2[C@H]1c1nnn[nH]1` [phenoxycarbonyl], for which the minimum inhibitory concentration (MIC) is under 0.1 µg/mL.

Turning to `CC1(C)S[C@@H]2[C@H](NC(=O)CSc3ccncc3)C(=O)N2[C@H]1c1nnn[nH]1` [2-(4-pyridylthio)acetyl], the MIC is under 0.1 µg/mL.

The same test, now with this note: compounds wherein R is hydrogen; a strain of Streptococcus pyogenes; Brain-Heart Infusion broth, overnight; read-out: MIC vs. Strep. pyogenes.
`CC1(C)S[C@@H]2[C@H](NC(=O)[C@H](N)Cc3ccccc3)C(=O)N2[C@H]1c1nnn[nH]1` [D-2-amino-3-phenylpropionyl]: the MIC came to 0.39 µg/mL (≈ 1.01 µM).

As to `CC1(C)S[C@@H]2[C@H](NC(=O)OCc3ccccc3)C(=O)N2[C@H]1c1nnn[nH]1` [benzyloxycarbonyl], the minimum inhibitory concentration (MIC) was under 0.1 µg/mL.

As to `CC1(C)S[C@@H]2[C@H](NC(=O)[C@H](N)c3ccc(O)c(Cl)c3)C(=O)N2[C@H]1c1nnn[nH]1`, the minimal inhibitory concentration (MIC) turned out to be 0.1 µg/mL (≈ 0.236 µM).

Regarding `CC1(C)S[C@@H]2[C@H](NC(=O)C(N=[N+]=[N-])c3ccccc3)C(=O)N2[C@H]1c1nnn[nH]1` (stereo partly shown) [2-azido-2-phenylacetyl], the minimal inhibitory concentration (MIC) was under 0.1 µg/mL.

With `CCOC(=O)N[C@@H]1C(=O)N2[C@@H]1SC(C)(C)[C@@H]2c1nnn[nH]1` [ethoxycarbonyl], the MIC was under 0.1 µg/mL.

As for `CC1(C)S[C@@H]2[C@H](NC(=O)[C@H](N)c3cccs3)C(=O)N2[C@H]1c1nnn[nH]1` [D-2-amino-2-(2-thienyl)acetyl], the MIC was 0.1 µg/mL (≈ 0.264 µM).

Regarding `CC1(C)S[C@@H]2[C@H](NC(=O)[C@H](N)c3cccc(O)c3)C(=O)N2[C@H]1c1nnn[nH]1` [D-2-amino-2-(m-hydroxyphenyl)acetyl], the minimal inhibitory concentration (MIC) was under 0.1 µg/mL.

For `CC(C)[C@@H](N)C(=O)N[C@@H]1C(=O)N2[C@@H]1SC(C)(C)[C@@H]2c1nnn[nH]1` [D-2-amino-3-methylbutyryl], the minimal inhibitory concentration (MIC) turned out to be 0.2 µg/mL (≈ 0.589 µM).

For `CC1(C)S[C@@H]2[C@H](NC(=O)CBr)C(=O)N2[C@H]1c1nnn[nH]1` [2-bromoacetyl], the minimum inhibitory concentration (MIC) is under 0.1 µg/mL.

On to `CC1(C)S[C@@H]2[C@H](NC(=O)[C@H](N)c3cccc(F)c3)C(=O)N2[C@H]1c1nnn[nH]1` [D-2-amino-2-(m-fluorophenyl)acetyl], for which the minimum inhibitory concentration (MIC) is under 0.1 µg/mL.

With `CCN=C(NCC)SCC(=O)N[C@@H]1C(=O)N2[C@@H]1SC(C)(C)[C@@H]2c1nnn[nH]1` [2-(N,N'-diethylamidinothio)acetyl], the MIC is under 0.1 µg/mL.

Regarding `CC(=O)N[C@@H]1C(=O)N2[C@@H]1SC(C)(C)[C@@H]2c1nnn[nH]1` [acetyl], the minimum inhibitory concentration (MIC) is under 0.1 µg/mL.

Regarding `CC1(C)S[C@@H]2[C@H](NC(=O)Cn3cnnn3)C(=O)N2[C@H]1c1nnn[nH]1` [2-(1-tetrazolyl)acetyl], the minimal inhibitory concentration (MIC) is under 0.39 µg/mL.

Regarding `CC1(C)S[C@@H]2[C@H](NC(=O)COc3ccccc3)C(=O)N2[C@H]1c1nnn[nH]1` [2-phenoxyacetyl], the MIC was under 0.1 µg/mL.

`COc1cccc(OC)c1C(=O)N[C@@H]1C(=O)N2[C@@H]1SC(C)(C)[C@@H]2c1nnn[nH]1` [2,6-dimethoxybenzoyl]: the MIC is under 0.2 µg/mL.

As to `CC1(C)S[C@@H]2[C@H](NC(=O)C=CC(N)=O)C(=O)N2[C@H]1c1nnn[nH]1` [3-(carbamoyl)acryloyl], the MIC is under 0.1 µg/mL.

On to `CC1(C)S[C@@H]2[C@H](NC(=O)Cc3ccccc3)C(=O)N2[C@H]1c1nnn[nH]1` [2-phenylacetyl, 6-(2-Phenylacetamido)-2,2-dimethyl-3-(5-tetrazolyl)penam], for which the MIC was under 0.1 µg/mL.

For `CC1(C)S[C@@H]2[C@H](NC(=O)[C@@H](N)c3ccc(O)cc3)C(=O)N2[C@H]1c1nnn[nH]1` [L-2-amino-2-(p-hydroxyphenyl)acetyl], the MIC was under 0.1 µg/mL.

Turning to `CC1(C)S[C@@H]2[C@H](NC(=O)C(N)c3ccc(Cl)cc3)C(=O)N2[C@H]1c1nnn[nH]1` (mixture of isomers) [DL-2-amino-2-(p-chlorophenyl)acetyl], the MIC is under 0.1 µg/mL.

As for `CC1(C)S[C@@H]2[C@H](NC(=O)[C@H](N)c3ccccc3)C(=O)N2[C@H]1c1nnn[nH]1` [D-2-amino-2-phenylacetyl], the MIC was under 0.1 µg/mL.

Consider `CC1(C)S[C@@H]2[C@H](NC(=O)C(N)c3ccc(O)c(O)c3)C(=O)N2[C@H]1c1nnn[nH]1` (mixture of isomers) [DL-2-amino-2-(3,4-dihydroxyphenyl)acetyl], for which the MIC is under 0.1 µg/mL.

As for `CC1(C)S[C@@H]2[C@H](N)C(=O)N2[C@H]1c1nnn[nH]1` [hydrogen, 6-Amino-2,2-dimethyl-3-(5-tetrazolyl)penam], the minimal inhibitory concentration (MIC) is under 0.1 µg/mL.

For `CC1(C)S[C@@H]2[C@H](NC(=O)C3(N)CCCCC3)C(=O)N2[C@H]1c1nnn[nH]1` [1-aminocyclohexylcarbonyl], the MIC came out at 25 µg/mL (≈ 68.4 µM).

Consider `CC1(C)S[C@@H]2[C@H](NC(=O)CC#N)C(=O)N2[C@H]1c1nnn[nH]1` [2-cyanoacetyl], for which the MIC stood at 0.1 µg/mL (≈ 0.325 µM).

Values taken from US3957811A, “Process for 3-(1-[arylmethyl]tetrazol-5-yl)penams” (Pfizer Inc., priority 1974, dated 1976).
